For 1 compound, side effects results are on record in patent US20250255890A1, “PSILOCYBIN CULTIVATION, EXTRACTION, AND THERAPEUTIC USE” (Golden Fleece Research Group Inc., priority 2024, published 2025).

For this data set, the system named is patients with certain neurological and mental disorders. The experiment in a line: Therapeutic effects of psilocybin in selected patients (patient experiences). The settings on record: identified group of selected patients after intaking the psilocybin products. It is filed as in vivo, human. The text has this: In one aspect, psilocybin is effective in treating and reducing ADHD, anxiety, ADD and the symptoms of Tourette Syndrome. […] Some patients suffered significant side effects when taking prescription drugs for the respective indications.

`CN(C)CCc1c[nH]c2cccc(OP(=O)(O)O)c12` [Psilocybin, psilocybin]: the side effects entry was “minimal side effects”.
